Experiments:
[1] = biological target: T1, H3R (Mus musculus, UniProt P58406); assay: Dynamic PET imaging in CD1 mice, baseline and H3R antagonist blocking; type: in vivo; settings: for V T, cerebellum / V T, cortex / V T, hippocampus / V T, striatum / V T, thalamus / V T, whole brain: Logan analysis, IDIF
T1 construct: dynamic PET imaging studies were conducted in CD1 mice; from tissue; host or cells: brain of living CD1 mice
Experimental: To elucidate the in vivo brain uptake of [^18F]3 and [^18F]4, dynamic PET imaging studies were conducted in CD1 mice (an outbred strain of immunocompetent mice commonly used for pharmacokinetic and biodistribution studies) for 60 min. The results, which include summed PET images (0–60 min), whole-brain time-activity curves (TACs), and area under the curve (AUC) for both radioligands, are depicted in Figures and . At baseline, [^18F]3 rapidly crossed the BBB following intravenous injection, reaching peak whole-brain uptake with a standardized uptake value (SUV) value of 2.4 at 2.3 min. This was followed by a gradual washout and reached a SUV of 1.87 by 60 min. To evaluate the binding characteristics of [^18F]3, elective H3R antagonists with distinct structural scaffolds, GSK189254, enerisant, and cipralisant, were used as blocking agents. […] Quantification of specific tracer binding was performed using volume of distribution (V T) values, derived from compartmental modeling and an image-derived input function (IDIF). […] While these findings support the utility of [^18F]3 for in vivo studies, we acknowledge the inherent limitations of IDIF, including the lack of metabolite correction and potential inaccuracies in capturing early phase kinetics.
PET imaging was conducted following previously reported methods. CD1 mice (5–6 weeks) were anesthetized with 1.5% (v/v) isoflurane during the scan. A dose of 3.0 MBq of [^18F]3 or [^18F]4 was intravenously injected into the tail vein, and a dynamic scan was acquiring using a PET scanner (MOLECUBES, beta-cube) for 60 min. In the blocking studies, GSK189254 (3 mg/kg) in 0.1 mL of saline containing 5% ethanol and 5% Tween-80 was preinjected for 10 min prior to the injection of PET radioligands. The results were reconstructed and analyzed by PMOD 4.3 software.
Quantification of specific tracer binding was performed using volume of distribution (VT) values, derived from compartmental modeling and an image-derived input […]
significant reduction in H3R-rich brain regions such as the cortex and striatum under blocking conditions with GSK189254, enerisant, and cipralisant, confirming the specificity of [18F]3 binding (Table S1).
Table S1. Estimation of V T values by Logan analysis in mice with [ 18F]3 at baseline, GSK189254-blocking (3 mg/kg), enerisant-blocking (3 mg/kg), and cipralisant-blocking (3 mg/kg) conditions.
Group Baseline GSK189254 Enerisant Cipralisant blocking blocking blocking

[2] = biological target: T2, sigma-1 receptor (Mus musculus, UniProt O55242); assay: PET imaging in mice with NE-100 or ABT-239 blocking; type: in vivo
T2 construct: we conducted additional in vivo PET imaging studies using NE-100; from tissue; host or cells: brain of living mice
T2 sequence (O55242 whole entry): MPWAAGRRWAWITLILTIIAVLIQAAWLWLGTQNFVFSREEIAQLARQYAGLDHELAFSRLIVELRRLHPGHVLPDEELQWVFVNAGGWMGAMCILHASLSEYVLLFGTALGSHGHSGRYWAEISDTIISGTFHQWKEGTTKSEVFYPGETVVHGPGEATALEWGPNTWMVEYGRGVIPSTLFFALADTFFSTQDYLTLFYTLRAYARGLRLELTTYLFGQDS

[3] = test system: P-glycoprotein (P-gp) and breast cancer resistance protein (BCRP); assay: PET imaging in mice pretreated with elacridar; type: in vivo; settings: elacridar 3 mg/kg, 20 min prior to radioligand injection
Experimental: To determine whether [^18F]3 is actively effluxed by BBB transporters such as P-glycoprotein (P-gp) and breast cancer resistance protein (BCRP), we conducted additional PET scans in mice pretreated with elacridar (3 mg/kg, a dual P-gp/BCRP inhibitor) 20 min prior to radioligand injection.
Figure S4. Mice PET imaging studies (0−60 minutes) of [ 18F]3. (A) TACs of [ 18F]3 in the whole-brain under baseline and elacridar-blocking (3 mg/kg) conditions; (B) Area under curve of [ 18F]3 in the whole-brain; All data were referred to as mean ± SD, n = […]
The molar activities of [18F]3 and [18F]4 were determined using calibration curves, which were generated by plotting the concentration of the authentic standard compounds 3 or 4 against their respective flow injection analysis peak area ratios ([…]). Based on these calibration curves, the molar activities of [18F]3 and [18F]4 were calculated and reported as GBq/µmol.
Figure S5. Calibration curves of compounds 3 (A) and 4 (B). The standard curve was generated by plotting the HPLC UV signal area against concentrations of the compounds 3 or 4. Linear regression analysis was performed to determine the correlation between peak area and […]

[4] = In vitro stability in serum, mice; type: in vitro ADME; settings: 37 °C, 30, 60 and 90 min
Experimental: (§1) To assess the stability of [^18F]3, in vitro radioactivity analyses were conducted following 30-, 60- and 90 min coincubation of the radioligand in the serum and liver microsomes from mice, nonhuman primates (NHPs), and humans (Figure ).
(§2) Serum from mice, NHPs, and humans were warmed to room temperature, 15 MBq of [^18F]3 was added to 0.4 mL of each species’ serum. The mixtures were incubated at 37 °C and 0.1 mL of mixture was transferred into 0.2 mL cold acetonitrile at 30, 60, and 90 min. The samples were vortexed for 15 s and then centrifuged at 10,000g for 5 min. The supernatant was analyzed using analytical HPLC (Agilent 1100 series HPLC system on Phenomenex Luna C-18 column (4.6 × 150 mm), mobile phase 30% CH3CN/0.1% TFA in water, flow:1 mL/min). For microsomes studies, a mixture of microsomes (0.5 mg/mL), [^18F]3 (15 MBq), 0.35 mL of PBS, 0.05 mL of NADPH regenerating system A, and 0.01 mL of NADPH regenerating system B were incubated at 37 °C. The subsequent steps followed the same procedure as described above.

[5] = In vitro stability in serum, NHPs; type: in vitro ADME, nonhuman primates (NHPs); settings: NHP serum, 37 °C, 30, 60 and 90 min
Experimental: as §1, §2

[6] = mice pretreated with GSK189254 (3 mg/kg)

T1 sequence (P58406 whole entry): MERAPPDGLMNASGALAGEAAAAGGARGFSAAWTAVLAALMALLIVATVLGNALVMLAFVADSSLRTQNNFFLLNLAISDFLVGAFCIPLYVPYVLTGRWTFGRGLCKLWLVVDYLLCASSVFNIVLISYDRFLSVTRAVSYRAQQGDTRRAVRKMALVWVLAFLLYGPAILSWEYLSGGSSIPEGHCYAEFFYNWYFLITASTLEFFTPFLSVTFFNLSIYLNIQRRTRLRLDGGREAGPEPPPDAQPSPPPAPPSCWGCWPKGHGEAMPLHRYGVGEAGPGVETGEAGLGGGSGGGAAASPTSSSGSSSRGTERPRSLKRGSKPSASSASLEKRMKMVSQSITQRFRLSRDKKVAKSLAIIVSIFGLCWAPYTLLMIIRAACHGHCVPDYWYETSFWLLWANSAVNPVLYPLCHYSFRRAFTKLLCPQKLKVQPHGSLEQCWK

O=C([C@H]1C[C@@H]1c1ccc([18F])cc1)N1CCN(C2CCCC2)CC1 [[^18F]3]
whole-brain signal reduction based on AUC, GSK189254 blocking ([1]; GSK189254 3 mg/kg, 0–60 min): 32.5%
V T, cerebellum ([1]; GSK189254 blocking 3 mg/kg): 3.85 ± 0.61
V T, cortex ([1]; GSK189254 blocking 3 mg/kg): 2.17 ± 0.08
V T, hippocampus ([1]; GSK189254 blocking 3 mg/kg): 3.77 ± 0.47
V T, striatum ([1]; GSK189254 blocking 3 mg/kg): 2.91 ± 0.05
V T, thalamus ([1]; GSK189254 blocking 3 mg/kg): 3.90 ± 0.90
V T, whole brain ([1]; GSK189254 blocking 3 mg/kg): 3.40 ± 0.44
V T, cerebellum ([1]; baseline): 5.59 ± 0.37
V T, cortex ([1]; baseline): 4.82 ± 0.09
V T, hippocampus ([1]; baseline): 5.80 ± 0.05
V T, striatum ([1]; baseline): 5.64 ± 0.02
V T, thalamus ([1]; baseline): 6.71 ± 0.05
V T, whole brain ([1]; baseline): 5.29 ± 0.52
V T, cerebellum ([1]; cipralisant blocking 3 mg/kg): 2.94 ± 0.33
V T, cortex ([1]; cipralisant blocking 3 mg/kg): 2.38 ± 0.34
V T, hippocampus ([1]; cipralisant blocking 3 mg/kg): 2.61 ± 0.32
V T, striatum ([1]; cipralisant blocking 3 mg/kg): 2.67 ± 0.33
V T, thalamus ([1]; cipralisant blocking 3 mg/kg): 2.78 ± 0.40
V T, whole brain ([1]; cipralisant blocking 3 mg/kg): 2.61 ± 0.30
V T, cerebellum ([1]; enerisant blocking 3 mg/kg): 3.73 ± 0.16
V T, cortex ([1]; enerisant blocking 3 mg/kg): 3.18 ± 0.12
V T, hippocampus ([1]; enerisant blocking 3 mg/kg): 3.84 ± 0.19
V T, striatum ([1]; enerisant blocking 3 mg/kg): 3.48 ± 0.27
V T, thalamus ([1]; enerisant blocking 3 mg/kg): 4.11 ± 0.26
V T, whole brain ([1]; enerisant blocking 3 mg/kg): 3.58 ± 0.18
time of peak whole-brain uptake ([1]; baseline, CD1 mice): 2.3 min
whole-brain uptake at 60 min ([1]; baseline, CD1 mice): 1.87 SUV
peak whole-brain uptake ([1]; baseline, intravenous injection, CD1 mice): 2.4 SUV
whole-brain AUC reduction, cipralisant blocking ([1]; cipralisant 3 mg/kg, 0–60 min): 38.4%
whole-brain AUC reduction, enerisant blocking ([1]; enerisant 3 mg/kg, 0–60 min): 35.6%
brain radioactivity at 60 min [1, 6]: 1.27 SUV
peak brain radioactivity [1, 6]: 1.98 SUV
time of peak brain radioactivity [1, 6]: 1.9 min
effect of ABT-239 preinjection on brain signal ([2]; ABT-239 (dual H3R and sigma-1 receptor antagonist) 3 mg/kg): near-complete signal blockade
effect of NE-100 blocking on brain uptake ([2]; NE-100 (selective sigma-1 receptor antagonist) 3 mg/kg): partial reduction
change of brain uptake after elacridar pretreatment [3]: did not significantly change
parent compound remaining intact in serum [4]: over 95%
parent compound remaining intact in serum [5]: over 95%
